Source: patent US8227428B2, “Anti-infammatory macrolide” (Glaxo Group Limited, priority 2009, dated 2012)

Tests used:
[1] = Stability in buffer solutions pH 2 to pH 8 at 25° C.; type: physicochemical
Procedure: (§1) Stability in buffer solutions pH 2 to pH 8 at 25° C., and in bio-relevant media (SGF pH 1.6, Fasted SIF pH 6.5 and Fed SIF pH 5.0) at 37° C., during 24 hours is monitored. The samples are analysed by LC/MS.
Buffer Solutions and Physiologically Relevant Media Used in Stability Assay:
LC Conditions: Instrument HP1100
Column: Waters XBridge C18, 2.1×50 mm, 3.5 μm
Guard column: Waters XBridge C18, 2.1×10 mm, 3.5 μm
• A) 0.1% HCOOH/H2O • B) 0.1% HCOOH/CH3CN Gradient Timetable: […]
(§2) Flow: 0.3 mL/min Column temp.: 25° C. Sample temp.: 25° C. (for stability assay in buffer solutions) • 37° C. (for stability assay in bio-relevant media) Injector volume: 3 μL (without injection program) MS Conditions: Instrument HP MS API-ES, positive ion mode Mass Range: 150-1500 Fragmentor: 100 Gain: 1.0 Treshold: 150 Step size: 0.20 Gas Temperature: 350° C. Drying Gas Flow: 13 L/min Nebulizer Pressure: 35 psig Capillary Voltage Positive 4000 V • Negative 4000 V Sample Preparation: a) For Stability Assay in Buffer Solutions
Compounds are dissolved in CH3CN to produce a 1 mg/mL stock solution. The stock solution is diluted to a concentration of 0.2 mg/mL (1 mL solution in 4 mL buffer) with appropriate buffer to produce a working solution.
Each solution at each pH is then dispatched into vials that are sealed and stored at room temperature in order to be analyzed at the proper time point. Before analysis, pH values of prepared sample solutions are checked and adjusted if neccessary.

[2] = Stability in bio-relevant media (SGF, Fasted SIF, Fed SIF) at 37° C.; type: physicochemical
Procedure: as §1
SGF (Simulated Gastric Fluid) pH 1.6
Fasted SIF (Simulated Intestinal Fluid) pH 6.5
Fed SIF (Simulated Intestinal Fluid) pH 5.0
as §2
b) For Stability Assay in Bio-Relevat Media
b1) For SGF Media pH 1.6 Testing:
Compounds are dissolved in SGF media pH 1.6 to give 0.2 mg/mL solution in case of compounds 1 and 2, and to give 0.1 mg/mL solution in case of compound 3. Solutions are then stored in a water bath at 37° C. and removed at the proper time point for LC/MS analysis. Before analysis, pH values of prepared sample solutions are checked and adjusted if necessary.
b2) For Fasted SIF Media pH 6.5 Testing:
(§3) Compounds are dissolved in Fasted SIF media pH 6.5 to give 2 mg/mL solution. Solutions are then dispatched into vials that are stored in a water bath at 37° C. and removed at the proper time point and diluted 10 times with CH3CN for LC/MS analysis. Before analysis, pH values of prepared sample solutions are checked and adjusted if necessary.
b3) For Fed SIF Media pH 5.0 Testing:
as §3, with “Fed” for “Fasted”, “5.0” for “6.5”, “40” for “10”

CC[C@H]1OC(=O)[C@H](C)[C@@H](O[C@H]2C[C@@](C)(OC)[C@@H](OC(=O)CN(CC)CC)[C@H](C)O2)[C@H](C)[C@@H](O[C@@H]2O[C@H](C)C[C@H](N(C)C)[C@H]2O)[C@](C)(OC)C[C@@H](C)C(=O)N[C@H](C)[C@@H](O)[C@]1(C)O [Example 3, 4″-O-(2-diethylaminoethanoyl)-6-O-methyl-9a-aza-9a-homoerythromycin A]
Percentage (Area %) of the compound observed in buffers ([1]; pH 6, 25° C., 20 h): 99.7 Area % | Percentage (Area %) of the compound observed in buffers ([1]; pH 6, 25° C., 22 h): 99.7 Area % | Percentage (Area %) of the compound observed in buffers ([1]; pH 6, 25° C., 24 h): 99.7 Area % | Percentage (Area %) of the compound observed in buffers ([1]; pH 6, 25° C., Initial): 100 Area % | Percentage (Area %) of the compound observed in buffers ([1]; pH 7, 25° C., 2 h): 100 Area % | Percentage (Area %) of the compound observed in buffers ([1]; pH 7, 25° C., 4 h): 99.9 Area % | Percentage (Area %) of the compound observed in buffers ([1]; pH 7, 25° C., 6 h): 99.9 Area % | Percentage (Area %) of the compound observed in buffers ([1]; pH 7, 25° C., 8 h): 99.9 Area % | Percentage (Area %) of the compound observed in buffers ([1]; pH 7, 25° C., 12 h): 99.7 Area % | Percentage (Area %) of the compound observed in buffers ([1]; pH 7, 25° C., 14 h): 99.7 Area % | Percentage (Area %) of the compound observed in buffers ([1]; pH 7, 25° C., 18 h): 99.8 Area % | Percentage (Area %) of the compound observed in buffers ([1]; pH 7, 25° C., 20 h): 98.8 Area % | Percentage (Area %) of the compound observed in buffers ([1]; pH 7, 25° C., 22 h): 99.7 Area % | Percentage (Area %) of the compound observed in buffers ([1]; pH 7, 25° C., 24 h): 98.7 Area % | Percentage (Area %) of the compound observed in buffers ([1]; pH 7, 25° C., Initial): 100 Area % | Percentage (Area %) of the compound observed in buffers ([1]; pH 8, 25° C., 2 h): 99.9 Area % | Percentage (Area %) of the compound observed in buffers ([1]; pH 8, 25° C., 4 h): 99.9 Area % | Percentage (Area %) of the compound observed in buffers ([1]; pH 8, 25° C., 6 h): 99.9 Area % | Percentage (Area %) of the compound observed in buffers ([1]; pH 8, 25° C., 8 h): 99.7 Area % | Percentage (Area %) of the compound observed in buffers ([1]; pH 8, 25° C., 12 h): 99.5 Area % | Percentage (Area %) of the compound observed in buffers ([1]; pH 8, 25° C., 14 h): 99.4 Area % | Percentage (Area %) of the compound observed in buffers ([1]; pH 8, 25° C., 18 h): 98.4 Area % | Percentage (Area %) of the compound observed in buffers ([1]; pH 8, 25° C., 20 h): 98.3 Area % | Percentage (Area %) of the compound observed in buffers ([1]; pH 8, 25° C., 22 h): 98.2 Area % | Percentage (Area %) of the compound observed in buffers ([1]; pH 8, 25° C., 24 h): 98.2 Area % | Percentage (Area %) of the compound observed in buffers ([1]; pH 8, 25° C., Initial): 100 Area % | Percentage (Area %) of the compound observed in Bio-relevant media ([2]; Fasted SIF pH 6.5, 37° C., 1 h): 99.2 Area % | Percentage (Area %) of the compound observed in Bio-relevant media ([2]; Fasted SIF pH 6.5, 37° C., 2 h): 98.7 Area % | Percentage (Area %) of the compound observed in Bio-relevant media ([2]; Fasted SIF pH 6.5, 37° C., 3 h): 98.3 Area % | Percentage (Area %) of the compound observed in Bio-relevant media ([2]; Fasted SIF pH 6.5, 37° C., 4 h): 97.8 Area % | Percentage (Area %) of the compound observed in Bio-relevant media ([2]; Fasted SIF pH 6.5, 37° C., 5 h): 97.6 Area % | Percentage (Area %) of the compound observed in Bio-relevant media ([2]; Fasted SIF pH 6.5, 37° C., 24 h): 95.1 Area % | Percentage (Area %) of the compound observed in Bio-relevant media ([2]; Fasted SIF pH 6.5, 37° C., Initial): 100 Area % | Percentage (Area %) of the compound observed in Bio-relevant media ([2]; Fed SIF pH 5.0, 37° C., 1 h): 100 Area % | Percentage (Area %) of the compound observed in Bio-relevant media ([2]; Fed SIF pH 5.0, 37° C., 2 h): 99.9 Area % | Percentage (Area %) of the compound observed in Bio-relevant media ([2]; Fed SIF pH 5.0, 37° C., 3 h): 100 Area % | Percentage (Area %) of the compound observed in Bio-relevant media ([2]; Fed SIF pH 5.0, 37° C., 4 h): 99.9 Area % | Percentage (Area %) of the compound observed in Bio-relevant media ([2]; Fed SIF pH 5.0, 37° C., 5 h): 99.8 Area % | Percentage (Area %) of the compound observed in Bio-relevant media ([2]; Fed SIF pH 5.0, 37° C., 24 h): 99.8 Area % | Percentage (Area %) of the compound observed in Bio-relevant media ([2]; Fed SIF pH 5.0, 37° C., Initial): 100 Area % | Percentage (Area %) of the compound observed in Bio-relevant media ([2]; SGF pH 1.6, 37° C., 1 h): 98.5 Area % | Percentage (Area %) of the compound observed in Bio-relevant media ([2]; SGF pH 1.6, 37° C., 2 h): 98.5 Area % | Percentage (Area %) of the compound observed in Bio-relevant media ([2]; SGF pH 1.6, 37° C., 3 h): 98.0 Area % | Percentage (Area %) of the compound observed in Bio-relevant media ([2]; SGF pH 1.6, 37° C., 4 h): 98.0 Area % | Percentage (Area %) of the compound observed in Bio-relevant media ([2]; SGF pH 1.6, 37° C., 5 h): 98.0 Area % | Percentage (Area %) of the compound observed in Bio-relevant media ([2]; SGF pH 1.6, 37° C., 6 h): 95.9 Area % | Percentage (Area %) of the compound observed in Bio-relevant media ([2]; SGF pH 1.6, 37° C., 8 h): 95.7 Area % | Percentage (Area %) of the compound observed in Bio-relevant media ([2]; SGF pH 1.6, 37° C., 10 h): 95.0 Area % | Percentage (Area %) of the compound observed in Bio-relevant media ([2]; SGF pH 1.6, 37° C., 12 h): 95.0 Area % | Percentage (Area %) of the compound observed in Bio-relevant media ([2]; SGF pH 1.6, 37° C., 24 h): 94.5 Area % | Percentage (Area %) of the compound observed in Bio-relevant media ([2]; SGF pH 1.6, 37° C., Initial): 100 Area % | stability in all three bio relevant media ([2]; SGF pH 1.6, Fasted SIF pH 6.5, Fed SIF pH 5.0, 37° C., during 24 hours): Examples 1 and 3 showed stability in all three bio relevant media.
